Experimental data as given in patent US9636342B2, “Method for treating prostate cancer” (UNIVERSITY OF SOUTH CAROLINA, priority 2012, dated 2017).
Values belong to the molecule of their own block, whether it stands above or below them.

How the values were obtained:
LNCaP-LN3 cells = test: Growth of androgen-independent LNCaP-LN3 cells in androgen-depleted CSS media (cell count); format: cell-based; details: for growth (total cell number): LNCaP-LN3 cells, 5 μM Senexin B or 10 μM MDV3100 (FIG. 6B)
Text: (§1) In most of CRPC patients, prostate cancer tumor cells restore their AR activities despite low-androgen environment or presence of AR antagonists.

[1] = test system: AR-dependent genes in CWR22rv1 cells; test: qPCR expression of AR-dependent genes KLK3 (PSA) and KLK2 in CWR22rv1 cells without androgen; format: cell-based; details: for expression of KLK2 / expression of PSA: absence of androgen, 5 μM Senexin B or 10 μM MDV3100 (FIG. 6D)
Text: (§2) Endogenous AR activities in these cells were estimated by qPCR analysis of mRNA expression of AR-dependent genes, KLK3 (PSA) and KLK2.

CWR22rv1 cells = test: Growth of androgen-independent CWR22rv1 cells in androgen-depleted CSS media (cell count); format: cell-based; details: for growth (total cell number): 5 μM Senexin B or 10 μM MDV3100 (FIG. 6B)
Text: as §1

[2] = test system: AR-dependent genes in LNCaP-LN3 cells; test: qPCR expression of AR-dependent genes KLK3 (PSA) and KLK2 in LNCaP-LN3 cells without androgen; format: cell-based; details: for expression of KLK2 / expression of PSA: LNCaP-LN3 cells, absence of androgen, 5 μM Senexin B or 10 μM MDV3100 (FIG. 6D)
Text: as §2

[3] = test system: androgen-responsive genes in LNCaP cells; test: qPCR expression of androgen-responsive genes in LNCaP cells; format: cell-based
AR = test: Promoter activity assay (firefly luciferase reporter) in HEK293 cells overexpressing full-length wild-type AR; format: cell-based; details: for activation of androgen-responsive construct (firefly luciferase reporter under PSA gene promoter): HEK-293 cells overexpressing AR, in the presence of R1881 (FIG. 4A, FIG. 5)
[4] = test system: AR-dependent genes in C4-2 cells; test: qPCR expression of AR-dependent genes KLK3 (PSA) and KLK2 in C4-2 cells without androgen; format: cell-based; details: CSS media 2d, treated 24 hours (FIG. 6C)
Text: as §2

[5] = test system: LN-CaP LN3 (LN3) prostate cancer cells xenograft; test: LNCaP-LN3 xenograft growth in nude mice; format: in vivo, nude male mice; details: 40 mg/kg i.p. daily
Experimental: 6-8 week-old nude male mice (Jackson Laboratory) were subcutaneously injected with 2 million LN-CaP LN3 (LN3) prostate cancer cells in the right flank, with Matrigel. Visible tumors formed ˜14 days after injection. […] The tumor size was measured by caliper 3 times per week and calculated by the equation length*width*width*0.5. […] At the end of the experiment, mice from each group were sacrificed to determine final tumor weight.

CDK8 = CDK8 (Homo sapiens, UniProt P49336); test: Senexin B inhibition of CDK8 kinase activity (Kd); format: binding
Sequence of CDK8 (P49336 whole entry): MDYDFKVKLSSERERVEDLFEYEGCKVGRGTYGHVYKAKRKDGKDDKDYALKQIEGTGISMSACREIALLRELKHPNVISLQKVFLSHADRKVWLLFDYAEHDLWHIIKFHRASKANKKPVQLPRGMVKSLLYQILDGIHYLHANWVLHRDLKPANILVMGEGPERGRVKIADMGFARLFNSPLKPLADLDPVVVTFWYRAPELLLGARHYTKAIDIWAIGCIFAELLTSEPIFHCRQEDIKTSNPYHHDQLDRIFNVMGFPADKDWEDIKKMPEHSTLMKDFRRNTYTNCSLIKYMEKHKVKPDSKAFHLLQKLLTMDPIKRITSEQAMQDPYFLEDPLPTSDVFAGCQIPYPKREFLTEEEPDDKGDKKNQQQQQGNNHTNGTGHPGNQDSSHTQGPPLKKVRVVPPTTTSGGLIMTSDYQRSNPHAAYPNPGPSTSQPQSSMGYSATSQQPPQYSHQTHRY
Text: The invention provides a method for treating prostate cancer in a subject comprising administering to the subject an effective amount of a selective inhibitor of one or more of CDK8 and CDK19. […] For purposes of the invention, “specific inhibitors of CDK8/19” are small molecule compounds that inhibit CDK8 or CDK8 and CDK19 to a greater extent than they inhibit certain other CDKs. In some embodiments, such compounds further inhibit CDK8 to a greater extent than CDK9. In preferred embodiments, such greater extent is at least 2-fold more than CDK9. Compounds that are useful in the invention are described in co-pending US Patent Publications 20120071477 and 20120071477 and PCT Publication WO2013/116786. Extent of inhibition is measured by the assays taught in co-pending PCT Publication WO2013/116786.
(§3) These small molecules selectively bind to the ATP pockets of CDK8/19 to inhibit their kinase activity.

Water solubility = format: physicochemical
Text: as §3

C4-2 cells = test: Growth of androgen-independent C4-2 cells in androgen-depleted CSS media (cell count); format: cell-based; details: different concentrations of Senexin B (FIG. 6A)
Text: as §1

PC-3 cells = test: Growth of PC-3 cells in androgen-depleted CSS media (cell count); format: cell-based; details: different concentrations of Senexin B, p<0.05 vs DMSO (FIG. 7)
Text: PC-3 cell growth was previously shown to be inhibited by the inhibition of transcription factor NFκB^43-45, and CDK8/19 inhibition was discovered by Senex to decrease the induction of NFκB transcriptional activity (PCT Publication WO2013/040153).

SMILES: CNC(=O)c1ccc(N2C(=S)N(c3ccc(C#N)c(C(F)(F)F)c3)C(=O)C2(C)C)cc1F [MDV3100, enzalutamide, reference compound]
growth (total cell number) (LNCaP-LN3 cells): weakly inhibited
expression of KLK2 [1]: does not down-regulate
expression of PSA [1]: does not down-regulate
growth (total cell number) (CWR22rv1 cells): does not inhibit
expression of KLK2 [2]: does not down-regulate
expression of PSA [2]: weakly down-regulates

SMILES: N#Cc1ccc2ncnc(NCCc3ccccc3)c2c1 [Senexin A]
androgen-stimulated transcriptional activation of androgen-responsive genes PSA (KLK3), KLK2, TMPRSS2, PGC ([3]; LNCaP cells, Senexin A 5 μM, androgen-supplemented (500 pM R1881) or androgen-deprived conditions (FIG. 2A)): significantly inhibited
activation of androgen-responsive construct (firefly luciferase reporter under PGC gene promoter) (AR; HEK293 cells overexpressing AR, Senexin A 1 μM and 5 μM, in the presence of R1881 (FIG. 4B)): significantly inhibits
activation of androgen-responsive construct (firefly luciferase reporter under PSA gene promoter) (AR): significantly inhibited

Kd (CDK8): 0.14 µM
water solubility (Water solubility): ≤ 50 mM
SMILES: CN1CCN(C(=O)c2ccc3cc(CCNc4ncnc5ccc(C#N)cc45)ccc3c2)CC1 [Senexin B]
androgen-independent growth (total cell number) (LNCaP-LN3 cells; LN3 cells, different concentrations of Senexin B (FIG. 6A)): strongly inhibited
growth (total cell number) (LNCaP-LN3 cells): strongly inhibited
expression of PSA and KLK2 ([1]; CSS media 2d, treated 24 hours (FIG. 6C)): down-regulated
expression of KLK2 [1]: strongly down-regulates
expression of PSA [1]: strongly down-regulates
growth (total cell number) (CWR22rv1 cells): significantly inhibited
androgen-independent growth (total cell number) (CWR22rv1 cells; different concentrations of Senexin B (FIG. 6A)): strongly inhibited
effect on the inhibition of androgen-inhibited genes AR, OPRK1, STXBP6 by androgen ([3]; LNCaP cells, Senexin B 1 μM and 4 μM (FIG. 2C)): did not interfere with the inhibition
androgen-stimulated transcriptional activation of androgen-responsive genes PSA (KLK3), KLK2, TMPRSS2, SGK1, KLF5, PGC ([3]; LNCaP cells, Senexin B 1 μM and 4 μM, androgen-supplemented (500 pM R1881, 24 hr after 5-day deprivation) (FIG. 2B)): significantly inhibited
androgen-stimulated transcription of androgen-responsive genes after pretreatment ([3]; androgen-deprived LNCaP cells, Senexin B 1 μM and 4 μM added 1 hr before 500 pM R1881, p<0.05 vs DMSO (FIG. 3)): significantly inhibited
expression of PSA and KLK2 [4]: down-regulated
appearance (health) of treated mice ([5]; 5 days per week for 2 weeks): looked as healthy as the mice in the vehicle control group
body weight of the hosts ([5]; 5 days per week for 2 weeks (FIG. 9)): no effects
tumor growth (tumor volume) ([5]; 5 days per week for 2 weeks, relative to vehicle control (FIG. 8)): dramatically inhibits
final tumor weight ([5]; 5 days per week for 2 weeks, vs control group (FIG. 10)): significantly lower
androgen-independent growth (total cell number) (C4-2 cells): strongly inhibited
growth of PC-3 cells (total cell number) (PC-3 cells): inhibited
activation of androgen-responsive construct (firefly luciferase reporter under PSA gene promoter) (AR): significantly inhibited
expression of PSA and KLK2 ([2]; LN3 cells, CSS media 2d, treated 24 hours (FIG. 6C)): down-regulated
expression of KLK2 [2]: strongly down-regulates
expression of PSA [2]: strongly down-regulates
